Read-outs that look alike come from different tables or passages of the source.

In assay [1] the test system is DU145 cells. Kind of assay: In vitro potency, ATPlite 1Step (NTRC Oncolines). The class given is cell-based. The following applies: Homo sapiens, DU-145. The procedure: FIG. 12A-12E show the efficacy of Compound lin a prostate cancer xenograft model (DU145). A) In vitro potency of Compound 1 in DU145 cells as evaluated by ATPlite 1Step™ Perkin Elmer (performed by NTRC Oncolines). B) DU145 cells were implanted subcutaneously in nude mice and tumors were allowed to grow to a volume of 210 mm^3 followed by randomization of animals into three (3) groups (vehicle control, 75 mg/kg, 150 mg/kg Compound 1) with 12 animals per group. A Compound 1 solid dispersion was prepared prior to each dosing and administered by oral gavage two times a day (BID). Mean tumor volume of each group over time and the growth of tumor in each individual animal was graphed. For each individual animal of […] group TGI (%) was calculated based on the tumor growth inhibition of individual tumor at each given day of the study compared to the average of the group for that given day of the study. P-values were calculated using two-tailed distribution and two-sample equal variance (homoscedastic) for each group treated with Compound 1 for each given day of the study in reference to vehicle control. NS p>0.05; *p≤0.05; **p≤0.01; ***p p≤0.001; **** p≤0.0001. […] The level of two biomarkers, pHH3 and CCNB1 in each tissue was measured and graphed as the Min-to-Max plot and scatter plot of the level of each biomarker. […]

In assay [2] the test system is A549 cells. Kind of assay: In vitro potency, ATPlite 1Step (NTRC Oncolines). The class given is cell-based. As to conditions: Homo sapiens; for Emax: A549, A549, in vitro, biphasic, read-out: Maximum effect (%). As to the method: FIG. 13A-13B show efficacy of Compound 1 in a lung adenocarcinoma xenograft model (A549). A) In vitro potency of Compound 1 in A549 cells as evaluated by ATPlite 1Step™ Perkin Elmer (performed by NTRC Oncolines). B) A549 cells (5×10^6) were implanted subcutaneously in athymic female nude mice and tumors were allowed to grow to a volume of ˜112 mm^3 followed by randomization of animals into three (3) groups (vehicle control, 75 mg/kg, 150 mg/kg Compound 1) with 12 animals per group. A Compound 1 solid dispersion was prepared prior to each dosing and administered by oral gavage two times a day (BID). Mean tumor volume of each group over time and the growth of tumor in each individual animal was graphed. For each individual animal of […] group TGI (%) was calculated based on the tumor growth inhibition of individual tumor at each given day of the study compared to the average of the group for that given day of the study. P-values were calculated using two-tailed distribution and two-sample equal variance (homoscedastic) for each group treated with Compound 1 for each given day of the study in reference to vehicle control. NS p>0.05; *p≤0.05; **p≤0.01; ***p p≤0.001; **** p≤0.0001.
A549 is a human lung adenocarcinoma cell line isolated from the lung tissue of their origin. […] A549 cells were implanted subcutaneously in nude mice and tumors were allowed to grow to an average volume of 112 mm^3 followed by randomization into three (3) groups consisting of vehicle control, 75 mg/kg and 150 mg/kg Compound 1 (12 animals per group). A Compound 1 solid dispersion was administered by oral gavage two times a day (BID). All animals remained in the study until Day 28 except one animal from Group 3 (Animal #29), which exited the study on Day 11 due to more than 20% body weight loss. This animal was excluded from all analysis. Data from Day 14-18 were excluded from the analysis due to inconsistencies in data collection methods.

In the case of `COc1ccccc1-c1nc(CNC(=O)c2ccccc2OC(F)F)n[nH]1` [Compound 1, 2-(difluoromethoxy)-N-[[5-(2-methoxyphenyl)-1H-1,2,4-triazol-3-yl]methyl]benzamide], the IC50 in assay [1] (DU145) is 77 nM; in assay [2] (A549, biphasic response, first phase), 53 nM. The Emax in assay [1] (DU145, in vitro, read-out: Maximum effect (%)) came out at 91%; in assay [2] (at highest concentration tested) it was 100%; in assay [2] (first phase), 52%.

The values above are taken from patent publication US20240342138A1, “MICROTUBULE TARGETING AGENTS” (BPGbio, Inc., priority 2023, published 2024).
